Results as given in patent US20190298740A1, “METHODS AND COMPOSITIONS FOR TREATING HALLUCINATIONS AND CONDITIONS RELATED TO THE SAME” (Enterin, Inc., priority 2018, published 2019).
Read-outs that look alike come from different tables or passages of the source.

What was measured:
mouse models of PD = settings: cited from earlier work
[1] = Pharmacokinetics of orally administered squalamine (ENT-01), Phase 2 trial; format: in vivo; settings: human; for AUC(0-t) / half-life / Cmax / Tmax: po; for Cmax: mean, approximate; for Tmax: read-out: Tmax (median value)
Experimental: PK data were collected on the 10 patients enrolled in Stage 1 and 10 patients enrolled in Stage 2 to determine the extent of systemic absorption. In Stage 1, PK data were obtained at each visit, pre-medication, at 1, 2, 4, 8 and 24 hours (Table 11). In Stage 2, PK was measured on days 1 and 6 of the randomization period pre-medication, at 1, 2, 4 and 8 hours (Table 12).
The mean Cmax, Tmax and T1/2 and AUC of the squalamine ion following squalamine (ENT-01) oral dosing for Stage 1 patients. The PK analyses are only approximate, as the lower limit of the validated concentration range was 10 ng/ml; most of the measured concentrations fell below that value. The mean Cmax, Tmax and T1/2 and AUC of the squalamine ion following squalamine (ENT-01) oral dosing for Stage 2 patients. The PK analyses are only approximate, as the lower limit of the validated concentration range was 0.5 ng/ml.

αS = αS (Homo sapiens, UniProt P37840); settings: in vitro; cited from earlier work
[2] = Preclinical oral dosing studies in dogs; settings: dog, in vivo
[3] = Safety and adverse event profile, Phase 2 trial; format: in vivo, human;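 as to Diarrhea, common adverse events by dose: number of subjects experiencing the event at each dose level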;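 as to Nausea, common adverse events by dose: number of subjects experiencing the event at each dose level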;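 as to Vomiting, common adverse events by dose: number of subjects experiencing the event at each dose level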
Excerpt: Tolerability limits included diarrhea or vomiting.

[4] = in vivo, 50 mg, Stage 1, 50 mg oral, 10 patients
[5] = in vivo, 100 mg, Stage 2, 100 mg oral daily, 4 patients (2 visits each)
[6] = in vivo, 175 mg, Stage 1, 175 mg oral, 7 patients
[7] = in vivo, 175 mg, Stage 2, 175 mg oral daily, 5 patients (2 visits each)
[8] = plasma, 25 mg, Stage 1, 25 mg oral, 9 patients
[9] = plasma, 75 mg, Stage 1, 75 mg oral, 9 patients
[10] = plasma, 75 mg, Stage 2, 75 mg oral daily, 1 patient (2 visits)
[11] = plasma, 100 mg, Stage 1, 100 mg oral, 9 patients
[12] = plasma, 125 mg, Stage 1, 125 mg oral, 9 patients
[13] = plasma, 200 mg, Stage 1, 200 mg oral, 6 patients

Structure (SMILES): CC(C)[C@@H](CC[C@@H](C)[C@H]1CC[C@H]2[C@@H]3[C@H](O)C[C@H]4C[C@@H](NCCCNCCCCN)CC[C@]4(C)[C@H]3CC[C@]12C)OS(=O)(=O)O (single isomer, unassigned) [squalamine (ENT-01)]
- Gastrointestinal motility (mouse models of PD): restores gastrointestinal motility
- AUC(0-t) ([1]; in vivo, 25 mg, Stage 1, 25 mg oral, 9 patients, read-out: AUC0-8hr): 10.8 ng·h/mL
- AUC(0-t) ([1]; in vivo, 25 mg, Stage 1, 25 mg oral, 9 patients, read-out: AUC0-16hr): 19.6 ng·h/mL
- half-life ([1]; in vivo, 25 mg, Stage 1, 25 mg oral, n = 3, read-out: T½ (converted)): 2.6 h
- Cmax [1, 4]: 3.73 ng/mL
- AUC(0-t) ([1]; in vivo, 50 mg, Stage 1, 50 mg oral, 10 patients, read-out: AUC0-8hr): 18.5 ng·h/mL
- AUC(0-t) ([1]; in vivo, 50 mg, Stage 1, 50 mg oral, 10 patients, read-out: AUC0-16hr): 33.1 ng·h/mL
- Tmax [1, 4]: 2 h
- half-life ([1]; in vivo, 50 mg, Stage 1, 50 mg oral, n = 3, read-out: T½ (converted)): 3.4 h
- Cmax [1, 5]: 17.7 ng/mL
- AUC(0-t) ([1]; in vivo, 100 mg, Stage 2, 100 mg oral daily, 4 patients (2 visits each), read-out: AUC0-8 hr): 70.3 ng·h/mL
- Tmax [1, 5]: 1 h
- half-life ([1]; in vivo, 100 mg, Stage 2, 100 mg oral daily, n = 5, read-out: T1/2 (converted)): 4.8 h
- AUC(0-t) ([1]; in vivo, 150 mg, Stage 1, 150 mg oral, 7 patients, read-out: AUC0-8hr): 31.5 ng·h/mL
- AUC(0-t) ([1]; in vivo, 150 mg, Stage 1, 150 mg oral, 7 patients, read-out: AUC0-16hr): 64 ng·h/mL
- Tmax ([1]; in vivo, 150 mg, Stage 1, 150 mg oral, 7 patients): 2 h
- half-life ([1]; in vivo, 150 mg, Stage 1, 150 mg oral, n = 4, read-out: T½ (converted)): 5.6 h
- Cmax [1, 6]: 10.3 ng/mL
- AUC(0-t) ([1]; in vivo, 175 mg, Stage 1, 175 mg oral, 7 patients, read-out: AUC0-8hr): 49.7 ng·h/mL
- Tmax [1, 6]: 2 h
- half-life ([1]; in vivo, 175 mg, Stage 1, 175 mg oral, n = 6, read-out: T½ (converted)): 9.1 h
- Cmax [1, 7]: 11.8 ng/mL
- AUC(0-t) ([1]; in vivo, 175 mg, Stage 2, 175 mg oral daily, 5 patients (2 visits each), read-out: AUC0-8 hr): 66.8 ng·h/mL
- Tmax [1, 7]: 2 h
- half-life ([1]; in vivo, 175 mg, Stage 2, 175 mg oral daily, n = 6, read-out: T1/2 (converted)): 10 h
- Cmax [1, 8]: 2.84 ng/mL
- Tmax [1, 8]: 1 h
- Cmax [1, 9]: 4.33 ng/mL
- AUC(0-t) ([1]; plasma, 75 mg, Stage 1, 75 mg oral, 9 patients, read-out: AUC0-8hr): 18.4 ng·h/mL
- AUC(0-t) ([1]; plasma, 75 mg, Stage 1, 75 mg oral, 9 patients, read-out: AUC0-16hr): 29.8 ng·h/mL
- Tmax [1, 9]: 2 h
- half-life ([1]; plasma, 75 mg, Stage 1, 75 mg oral, n = 2, read-out: T½ (converted)): 2.8 h
- Cmax [1, 10]: 10 ng/mL
- AUC(0-t) ([1]; plasma, 75 mg, Stage 2, 75 mg oral daily, 1 patient (2 visits), read-out: AUC0-8 hr): 59 ng·h/mL
- Tmax [1, 10]: 3 h
- half-life ([1]; plasma, 75 mg, Stage 2, 75 mg oral daily, n = 1, read-out: T1/2 (converted)): 5.5 h
- Cmax [1, 11]: 6.18 ng/mL
- AUC(0-t) ([1]; plasma, 100 mg, Stage 1, 100 mg oral, 9 patients, read-out: AUC0-8hr): 29.6 ng·h/mL
- AUC(0-t) ([1]; plasma, 100 mg, Stage 1, 100 mg oral, 9 patients, read-out: AUC0-16hr): 51.5 ng·h/mL
- Tmax [1, 11]: 2 h
- half-life ([1]; plasma, 100 mg, Stage 1, 100 mg oral, n = 5, read-out: T½ (converted)): 3.9 h
- Cmax [1, 12]: 9.63 ng/mL
- AUC(0-t) ([1]; plasma, 125 mg, Stage 1, 125 mg oral, 9 patients, read-out: AUC0-8hr): 43.1 ng·h/mL
- AUC(0-t) ([1]; plasma, 125 mg, Stage 1, 125 mg oral, 9 patients, read-out: AUC0-16hr): 77.7 ng·h/mL
- Tmax [1, 12]: 2 h
- half-life ([1]; plasma, 125 mg, Stage 1, 125 mg oral, n = 4, read-out: T½ (converted)): 3.9 h
- Cmax ([1]; plasma, 150 mg, Stage 1, 150 mg oral, 7 patients): 6.27 ng/mL
- AUC(0-t) ([1]; plasma, 175 mg, Stage 1, 175 mg oral, 7 patients, read-out: AUC0-16hr): 91.2 ng·h/mL
- Cmax [1, 13]: 15.1 ng/mL
- AUC(0-t) ([1]; plasma, 200 mg, Stage 1, 200 mg oral, 6 patients, read-out: AUC0-8hr): 78.3 ng·h/mL
- AUC(0-t) ([1]; plasma, 200 mg, Stage 1, 200 mg oral, 6 patients, read-out: AUC0-16hr): 157 ng·h/mL
- Tmax [1, 13]: 2 h
- half-life ([1]; plasma, 200 mg, Stage 1, 200 mg oral, n = 5, read-out: T½ (converted)): 9 h
- bioavailability ([1]; plasma, Stage 1, oral dosing up to 200 mg (114 mg/m^2), compared with prior phase 1 IV data, read-out: Approximate oral bioavailability): ~0.1%
- Formation of aggregates of αS (αS): inhibits the formation of αS aggregates
- bioavailability [2]: ~0.1%
- Diarrhea, common adverse events by dose ([3]; Stage 1, 25 mg): 1
- Nausea, common adverse events by dose ([3]; Stage 1, 25 mg): 0
- Vomiting, common adverse events by dose ([3]; Stage 1, 25 mg): 0
- Diarrhea, common adverse events by dose ([3]; Stage 1, 50 mg): 1
- Nausea, common adverse events by dose ([3]; Stage 1, 50 mg): 0
- Vomiting, common adverse events by dose ([3]; Stage 1, 50 mg): 0
- Diarrhea, common adverse events by dose ([3]; Stage 1, 75 mg): 1
- Nausea, common adverse events by dose ([3]; Stage 1, 75 mg): 0
- Vomiting, common adverse events by dose ([3]; Stage 1, 75 mg): 0
- Diarrhea, common adverse events by dose ([3]; Stage 1, 100 mg): 0
- Nausea, common adverse events by dose ([3]; Stage 1, 100 mg): 1
- Vomiting, common adverse events by dose ([3]; Stage 1, 100 mg): 1
- Diarrhea, common adverse events by dose ([3]; Stage 1, 125 mg): 1
- Nausea, common adverse events by dose ([3]; Stage 1, 125 mg): 2
- Vomiting, common adverse events by dose ([3]; Stage 1, 125 mg): 1
- Diarrhea, common adverse events by dose ([3]; Stage 1, 150 mg): 1
- Nausea, common adverse events by dose ([3]; Stage 1, 150 mg): 0
- Vomiting, common adverse events by dose ([3]; Stage 1, 150 mg): 0
- Diarrhea, common adverse events by dose ([3]; Stage 1, 175 mg): 1
- Nausea, common adverse events by dose ([3]; Stage 1, 175 mg): 1
- Vomiting, common adverse events by dose ([3]; Stage 1, 175 mg): 0
- Diarrhea, common adverse events by dose ([3]; Stage 1, 200 mg): 0
- Nausea, common adverse events by dose ([3]; Stage 1, 200 mg): 2
- Vomiting, common adverse events by dose ([3]; Stage 1, 200 mg): 0
- Diarrhea, common adverse events by dose ([3]; Stage 2, 75 mg): 7
- Dizziness (lightheadedness included), common adverse events by dose ([3]; Stage 2, 75 mg): 8
- Nausea, common adverse events by dose ([3]; Stage 2, 75 mg): 3
- Diarrhea, common adverse events by dose ([3]; Stage 2, 100 mg): 10
- Dizziness (lightheadedness included), common adverse events by dose ([3]; Stage 2, 100 mg): 7
- Nausea, common adverse events by dose ([3]; Stage 2, 100 mg): 12
- Diarrhea, common adverse events by dose ([3]; Stage 2, 125 mg): 3
- Dizziness (lightheadedness included), common adverse events by dose ([3]; Stage 2, 125 mg): 8
- Nausea, common adverse events by dose ([3]; Stage 2, 125 mg): 4
- Diarrhea, common adverse events by dose ([3]; Stage 2, 150 mg): 2
- Dizziness (lightheadedness included), common adverse events by dose ([3]; Stage 2, 150 mg): 2
- Nausea, common adverse events by dose ([3]; Stage 2, 150 mg): 11
- Diarrhea, common adverse events by dose ([3]; Stage 2, 175 mg): 1
- Dizziness (lightheadedness included), common adverse events by dose ([3]; Stage 2, 175 mg): 0
- Nausea, common adverse events by dose ([3]; Stage 2, 175 mg): 12
- Diarrhea, common adverse events by dose ([3]; Stage 2, 200 mg): 3
- Nausea, common adverse events by dose ([3]; Stage 2, 200 mg): 6
- Diarrhea, common adverse events by dose ([3]; Stage 2, 225 mg): 3
- Nausea, common adverse events by dose ([3]; Stage 2, 225 mg): 1
- Diarrhea, common adverse events by dose ([3]; Stage 2, 250 mg): 2
- Course of all other AEs ([3]; both stages): resolved spontaneously without discontinuation
